The record followed here is US20050171063A1, “Use of phosphono derivatives as anti-malarials” (priority 2003, published 2005).

Assay [1] relates to P. falciparum. Briefly: Effect of drug on P. falciparum in vitro: synchronized culture, Giemsa stained smear after 48 hrs. The class given is cell-based, Plasmodium falciparum. How it is done: Phosphono acetic acid was dissolved in normal saline and filter sterilized. The compound was added to the parasite culture at different concentrations ranging from 1-400 μm. The compound phosphono acetic acid was tested at the indicated doses using the experimental protocol as described below:
Protocol for Testing the Effect of Drug on P. falciparum for In Vitro Studies
The P. falciparum cultures were synchronized at first by sorbitol treatment. The compound of various concentrations was added to the 200 μl of synchronized P. falciparum culture (1% parasitemia). The parasitemia was checked by making Giemsa stained smear after 48 hrs of incubation at 37° C. The growth of P. falciparum was inhibited in dose-dependent manner, where 1 μM concentration yielded >90% inhibition (Plate 1). The bars represent the percent inhibition, whereas, the blue curve indicates the percentage of parasitemia.
Phosphono formic acid was dissolved in normal saline and filter sterilized. The compound was added to the parasite culture at different concentrations ranging from 1-10 μM. The growth of P. falciparum was inhibited in dose-dependent manner, where 10 μM concentration yielded −70% inhibition (FIG. 2).

Assay [2] deals with P. berghei. Briefly: Effect on P. berghei infected mice (in vivo model), parasitemia by Giemsa stained blood smears. The note with it: 50 mg/kg of body weight, once a day for four days. Also noted: species or system BALB/c mice. The procedure: Effect of Phosphono Acetic Acid on P. berghei Infected Mice (In Vivo Model)
(§1) BALB/c mice (4-6 weeks old) were infected with 10^5 P. berghei parasites/mouse. After four days of infection, when phosphono acetic acid (dissolved in saline and filter sterilized) at a dose of either 25 mg/kg body weight, or 50 mg/kg body weight. The injection of phosphono acetic acid was continued, once a day, for four days. After the fourth day of injection, parasitemea was determined by making Geimsa stained blood smears from the mice.

For assay [3], the system named is P. berghei. Description: Effect of PAA on survival of infected mice. The assay is classed as in vivo, BALB/c mice. The note with it: dose in the range of about 1 to 50 mg/kg (embodiment). The procedure:
as §1
Effect of PAA on Survival of Infected Mice
The compound of various concentrations was added to the 200 μl of synchronized P. falciparum culture (1% parasitemia). The parasitemia was checked by making Giemsa stained smear after 48 hrs of incubation at 37° C. The compound, PAA was used at the doses of 25 mg/kg and 50 mg/kg body weight. The control group indicates the group of mice infected with the parasite, but with no drug given.

Assay [4] has as its system 3D7 strain of P. falciparum. Description: Microscopy of Giemsa-stained slides, 3D7 strain of P. falciparum. The assay is classed as cell-based, Plasmodium falciparum. The following applies: upon addition of PAA. The source says:
The effect of Phosphono Acetic Acid on the 3D7 Strain of P. falciparum Giemsa-stained slides prepared for the experiment were examined under a microscope and represented in Plate 4. […] It is clear that PAA actually kills the parasite rather than simply inhibiting their growth (FIG. 4).

For `O=C(O)CP(=O)(O)O` [phosphono acetic acid], the “inhibition of growth of P. falciparum” value in assay [1] (1 μM concentration, 48 hrs, 1% parasitemia) is reported as above 90%. The “inhibits growth of P. falciparum” value in assay [1] (range of about 1 to 5 μM (embodiment)) is “about 100%”. Besides, the “inhibition of growth of P. berghei” value in assay [2] is given as −60%. The enhances the survival result in assay [3] was “about 60%”. In addition, in assay [4], the “effect on parasite seen under microscope” value is on record as “disintegrated trophozoltes are seen”.

Consider `O=C(O)P(=O)(O)O` [phosphono formic acid], for which the “inhibition of growth of P. falciparum” value in assay [1] (10 μM concentration) is given as −70%.
